Assay results from patent US7205281B2, “Process for the synchronization of ovulation for timed breeding without heat detection” (priority 2003, dated 2007).

Legend:
Assay type in all cases: in vivo, swine
postpartum sows [1] = assay: Timed deslorelin injection 96 hours post-weaning and single timed insemination without estrus detection (Example 3)
Experimental: (§1) Approximately 170 postpartum sows were randomly divided into two equal groups comprised of controls and treated. Following weaning, the controls were detected for estrus and bred following the normal standard operating procedures for the farms on which they resided. The treated sows received a 50 mcg dose of deslorelin in SAIB at 96 hours post-weaning and were bred with a single insemination 28+/−2 hours later with no regard to estrus detection. The sows were examined for pregnancy by ultrasound at 21 days and slaughtered around 28 days post breeding. The entire reproductive tract was removed and corpora lutea and embryos were counted.

postpartum sows [2] = assay: Pregnancy rate after deslorelin treatment in sows, summary of Tables 2 to 5; details: Table 6
Experimental: as §1, with “counted. Postpartum sows were randomly distributed into three different groups comprised of Controls, Treatment 1, and Treatment 2, with the exception of Site 3, which was divided into two groups, Control and Treatment 2. Control sows were detected for estrus following weaning, and bred following the normal standard operating procedures for the farms on which they resided. Treatment 1 sows were detected for estrus following weaning, and received a 50 mcg dose of deslorelin in the morning when standing and were bred by AI 4 hours later and again at 24+/−2 hours later. Treatment 2 sows received a 50 mcg dose of deslorelin in SAIB at 96 or 120 hours post-weaning and were bred with a single insemination 28+/−2 hours later with no regard to estrus detection. […]” for “counted.”

postpartum sows [3] = assay: Litter size after deslorelin treatment in postpartum sows at three farm sites (Example 4); details: Tables 3 to 5, regardless of estrus detection
Excerpt: Postpartum sows were randomly distributed into three different groups comprised of Controls, Treatment 1, and Treatment 2, with the exception of Site 3, which was divided into two groups, Control and Treatment 2. Control sows were detected for estrus following weaning, and bred following the normal standard operating procedures for the farms on which they resided. Treatment 1 sows were detected for estrus following weaning, and received a 50 mcg dose of deslorelin in the morning when standing and were bred by AI 4 hours later and again at 24+/−2 hours later. Treatment 2 sows received a 50 mcg dose of deslorelin in SAIB at 96 or 120 hours post-weaning and were bred with a single insemination 28+/−2 hours later with no regard to estrus detection.

[4] = system: ovariectomized estrogen primed gilt; assay: Dose response study of LH release in ovariectomized estrogen primed gilt model (RIA); details: single injection of 50 mcg in SAIB
Experimental: A dose response study was performed using deslorelin in SAIB in an ovariectomized estrogen primed gilt model (Barb, et al. (1999) Proceed. Int'l. Symp. Control. Rel. Bioact. Mater., 26).

mature postpartum sows = assay: Deslorelin injected intravulvar at estrus detection with AI breeding in mature postpartum sows (Example 2)
Experimental: Sows were assigned randomly in blocks of two to either control or to be injected intravulvar with 50 mcg of deslorelin in SAIB at the time of estrus detection for sows first detected in estrus in the a.m. and 12 hours later for those first detected in estrus in the p.m. Treated animals were bred AI upon detected estrus and again 24 hours later if still in estrus. Controls received a saline injection on first detected estrus behavior estrus detection and were bred according to the farm's normal procedures.

[5] = 50 μg deslorelin acetate intravulvar at first estrus detection, AI, AI again if in estrus next day

Question: With `CCNC(=O)[C@@H]1CCCN1C(=O)[C@H](CCCN=C(N)N)NC(=O)[C@H](CC(C)C)NC(=O)[C@@H](Cc1c[nH]c2ccccc12)NC(=O)[C@H](Cc1ccc(O)cc1)NC(=O)[C@H](CO)NC(=O)[C@H](Cc1c[nH]c2ccccc12)NC(=O)[C@H](Cc1cnc[nH]1)NC(=O)[C@@H]1CCC(=O)N1` [Deslorelin, deslorelin] as the compound, how does the “Pregnancy Rate” value (postpartum sows [1]; 50 mcg in SAIB 96 hours post-weaning, single insemination 28+/-2 hours later, no estrus detection) read?
Answer: 71%

Question: What about the “Sows Pregnant” value (postpartum sows [1]; 50 mcg in SAIB 96 hours post-weaning, single insemination 28+/-2 hours later, 84 sows in group, ultrasound at 21 days) of the same compound?
Answer: 60

Question: And the “Embryo Survival” value (postpartum sows [1]; 50 mcg in SAIB 96 hours post-weaning, slaughter around 28 days post breeding)?
Answer: 64%

Question: And the “Pregnancy rates” value (postpartum sows [1]; single timed injection post-weaning, single timed insemination, no estrus detection)?
Answer: normal pregnancy rates were attained

Question: And the “Pregnancy rates” value (postpartum sows [2])?
Answer: normal pregnancy rates were obtained

Question: What about the “Litter sizes” value (postpartum sows [3]) of the same compound?
Answer: normal litter sizes

Question: And the “Time of LH return to base level” value [4]?
Answer: ≤ 18 h

Question: And the “LH peak relative to normal value” ([4]; normal value from Hansel et al. 1973)?
Answer: about twice normal value

Question: What about the “Length of Estrus” value (mature postpartum sows; [5]) of the same compound?
Answer: 40.81 h

Question: What about the “Pregnancy Rate” value (mature postpartum sows; [5]) of the same compound?
Answer: 91%

Question: And the “Pregnancy rates, Control versus Treated” value (mature postpartum sows; 50 μg intravulvar at first estrus detection)?
Answer: no significant difference
